These results are taken from ChEMBL document CHEMBL1150668, “Antimicrobial resveratrol tetramers from the stem bark of Vatica oblongifoliassp. oblongifolia” (2002).

Values after ≈ are worked out from the molar mass of the structure shown.

The test system of one assay is Staphylococcus aureus. Briefly: Antimicrobial activity against methicillin-resistant Staphylococcus aureus by microdilution method. The class given is functional. For orientation: Broth dilution looks for growth in wells or tubes with falling amounts of substance.
Assay [1] deals with Mycolicibacterium smegmatis. Briefly: Antimicrobial activity against Mycobacterium smegmatis by microdilution method. The class given is functional.

As to `Oc1ccc([C@H]2c3c(O)cc(O)cc3[C@@H]3c4c(cc(O)cc4[C@H]2[C@H]2c4cc(O)cc5c4[C@@H](c4cc(O)cc(O)c4[C@@H]2c2ccc(O)cc2)[C@H](c2ccc(O)cc2)O5)O[C@H]3c2ccc(O)cc2)cc1` [ISOHOPEAPHENOL A], the MIC (against Staphylococcus aureus; in assay [1]) was > 100 µg/mL each time.

As to `Oc1ccc([C@@H]2c3c(O)cc(O)cc3[C@@H]3c4c(cc(O)c5c4[C@@H]2[C@H](c2ccc(O)cc2)[C@H]5c2cc(O)cc4c2[C@H](c2cc(O)cc(O)c2)[C@@H](c2ccc(O)cc2)O4)O[C@H]3c2ccc(O)cc2)cc1` [VATICAPHENOL A], the MIC against Staphylococcus aureus came out at 50 µg/mL (≈ 55.1 µM); in assay [1], 25 µg/mL (≈ 27.6 µM).

Regarding `NNC(=O)c1ccncc1` [ISONIAZID], in assay [1], the MIC was found to be 0.8 µg/mL (≈ 5.83 µM).

Turning to `Oc1ccc([C@@H]2c3c(O)cc(O)cc3[C@@H]3c4c(cc(O)cc4[C@H]2[C@H]2c4cc(O)cc5c4[C@@H](c4cc(O)cc(O)c4[C@@H]2c2ccc(O)cc2)[C@H](c2ccc(O)cc2)O5)O[C@H]3c2ccc(O)cc2)cc1` [HOPEAPHENOL A], the MIC amounted to 100 µg/mL (≈ 110 µM) with Staphylococcus aureus and 50 µg/mL (≈ 55.1 µM) in assay [1]. For the molecule `CN[C@H](CC(C)C)C(=O)N[C@H]1C(=O)N[C@@H](CC(N)=O)C(=O)N[C@H]2C(=O)N[C@H]3C(=O)N[C@H](C(=O)N[C@H](C(=O)O)c4cc(O)cc(O)c4-c4cc3ccc4O)[C@H](O)c3ccc(c(Cl)c3)Oc3cc2cc(c3O[C@@H]2O[C@H](CO)[C@@H](O)[C@H](O)[C@H]2O[C@H]2C[C@](C)(N)[C@H](O)[C@H](C)O2)Oc2ccc(cc2Cl)[C@H]1O` [VANCOMYCIN], the minimum inhibitory concentration (MIC) in the assay on Staphylococcus aureus worked out at 0.8 µg/mL (≈ 0.552 µM).

As a reminder, the MIC is the lowest concentration that inhibits growth of the organism. Low readings indicate greater potency, high ones weaker potency.
